Reference: PubChem BioAssay AID2060488 (Molecular Pharmacology Branch, DTP, NCI, 2025)

Test system: 966289-007-R4-J1-PDC complex spheroid viability
Experiment: Anticancer human tumor 966289-007-R4-J1-PDC patient-derived pancreatic adenocarcinoma cell line growth inhibition [GQUAD]
Conditions: for IC50: curve of first compound; for viability, T/C: stronger effect = lower value
In short: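 Viability of tumor cells grown as complex spheroids with endothelial and stromal cells, exposed to drug combinations. Top concentration at or near clinical Cmax (else 10 microM), diluted in half-log increments.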

[1] = second compound 0.0316 µM, first compound 0.000999 µM
[2] = second compound 0.0316 µM, first compound 0.00316 µM
[3] = second compound 0.0316 µM, first compound 0.00999 µM
[4] = second compound 0.0316 µM, first compound 0.0316 µM
[5] = second compound 0.0316 µM, first compound 0.0999 µM
[6] = second compound 0.0316 µM, first compound 0.316 µM
[7] = second compound 0.1 µM, first compound 0.000999 µM
[8] = second compound 0.1 µM, first compound 0.00316 µM
[9] = second compound 0.1 µM, first compound 0.00999 µM
[10] = second compound 0.1 µM, first compound 0.0316 µM
[11] = second compound 0.1 µM, first compound 0.0999 µM
[12] = second compound 0.1 µM, first compound 0.316 µM
[13] = second compound 0.316 µM, first compound 0.000999 µM
[14] = second compound 0.316 µM, first compound 0.00316 µM
[15] = second compound 0.316 µM, first compound 0.00999 µM
[16] = second compound 0.316 µM, first compound 0.0316 µM
[17] = second compound 0.316 µM, first compound 0.0999 µM
[18] = second compound 0.316 µM, first compound 0.316 µM
[19] = second compound 1 µM, first compound 0.000999 µM
[20] = second compound 1 µM, first compound 0.00316 µM
[21] = second compound 1 µM, first compound 0.00999 µM
[22] = second compound 1 µM, first compound 0.0316 µM
[23] = second compound 1 µM, first compound 0.0999 µM
[24] = second compound 1 µM, first compound 0.316 µM
[25] = second compound 3.16 µM, first compound 0.000999 µM
[26] = second compound 3.16 µM, first compound 0.00316 µM
[27] = second compound 3.16 µM, first compound 0.00999 µM
[28] = second compound 3.16 µM, first compound 0.0316 µM
[29] = second compound 3.16 µM, first compound 0.0999 µM
[30] = second compound 3.16 µM, first compound 0.316 µM
[31] = second compound 10 µM, first compound 0.000999 µM
[32] = second compound 10 µM, first compound 0.00316 µM
[33] = second compound 10 µM, first compound 0.00999 µM
[34] = second compound 10 µM, first compound 0.0316 µM
[35] = second compound 10 µM, first compound 0.0999 µM
[36] = second compound 10 µM, first compound 0.316 µM
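Also: spheroids exposed to the agents for seven days before readout.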
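For viability, T/C in this document: percent viability relative to DMSO vehicle control wells taken as 100%.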

Cn1ncnc1[C@H]1c2n[nH]c(=O)c3cc(F)cc(c23)N[C@@H]1c1ccc(F)cc1 + CN(C)c1ccc(Nc2c3ccc(NC(=O)CCN4CCCC4)cc3nc3cc(NC(=O)CCN4CCCC4)ccc23)cc1
IC50 (second compound 0.0316 µM): 0.161 µM
IC50 (second compound 0.1 µM): 0.164 µM
IC50 (second compound 0.316 µM): 0.168 µM
IC50 (second compound 1 µM): 0.137 µM
IC50 (second compound 3.16 µM): 0.104 µM
IC50 (second compound 10 µM): 0.0475 µM
viability, T/C [1]: 107%
viability, T/C [2]: 101%
viability, T/C [3]: 109%
viability, T/C [4]: 104%
viability, T/C [5]: 71.7%
viability, T/C [6]: 19%
viability, T/C [7]: 105%
viability, T/C [8]: 101%
viability, T/C [9]: 105%
viability, T/C [10]: 105%
viability, T/C [11]: 75.2%
viability, T/C [12]: 16.9%
viability, T/C [13]: 95.1%
viability, T/C [14]: 99.7%
viability, T/C [15]: 104%
viability, T/C [16]: 107%
viability, T/C [17]: 73.3%
viability, T/C [18]: 21.7%
viability, T/C [19]: 95.9%
viability, T/C [20]: 97.2%
viability, T/C [21]: 104%
viability, T/C [22]: 106%
viability, T/C [23]: 62.5%
viability, T/C [24]: 16.9%
viability, T/C [25]: 91.5%
viability, T/C [26]: 109%
viability, T/C [27]: 109%
viability, T/C [28]: 104%
viability, T/C [29]: 51.2%
viability, T/C [30]: 13%
viability, T/C [31]: 103%
viability, T/C [32]: 104%
viability, T/C [33]: 102%
viability, T/C [34]: 69.1%
viability, T/C [35]: 15%
viability, T/C [36]: 5.65%

CC(=O)O[C@H]1C(=O)[C@@]2(C)[C@H]([C@H](OC(=O)c3ccccc3)[C@]3(O)C[C@H](OC(=O)[C@H](O)[C@@H](NC(=O)c4ccccc4)c4ccccc4)C(C)=C1C3(C)C)[C@]1(OC(C)=O)CO[C@@H]1C[C@@H]2O + CN(C)c1ccc(Nc2c3ccc(NC(=O)CCN4CCCC4)cc3nc3cc(NC(=O)CCN4CCCC4)ccc23)cc1
IC50 (second compound 0.0316 µM): < 0.0316 µM
IC50 (second compound 0.1 µM): < 0.0316 µM
IC50 (second compound 0.316 µM): < 0.0316 µM
IC50 (second compound 1 µM): < 0.0316 µM
IC50 (second compound 3.16 µM): < 0.0316 µM
IC50 (second compound 10 µM): < 0.0316 µM
viability, T/C [4]: 6.18%
viability, T/C (second compound 0.0316 µM, first compound 0.1 µM): 3.03%
viability, T/C [6]: 4.68%
viability, T/C (second compound 0.0316 µM, first compound 1 µM): 5.91%
viability, T/C (second compound 0.0316 µM, first compound 3.16 µM): 9.45%
viability, T/C (second compound 0.0316 µM, first compound 10 µM): 14.6%
viability, T/C [10]: 6.28%
viability, T/C (second compound 0.1 µM, first compound 0.1 µM): 3.31%
viability, T/C [12]: 4.65%
viability, T/C (second compound 0.1 µM, first compound 1 µM): 7.21%
viability, T/C (second compound 0.1 µM, first compound 3.16 µM): 8.08%
viability, T/C (second compound 0.1 µM, first compound 10 µM): 13.5%
viability, T/C [16]: 6.93%
viability, T/C (second compound 0.316 µM, first compound 0.1 µM): 3.41%
viability, T/C [18]: 4.38%
viability, T/C (second compound 0.316 µM, first compound 1 µM): 6.89%
viability, T/C (second compound 0.316 µM, first compound 3.16 µM): 8.86%
viability, T/C (second compound 0.316 µM, first compound 10 µM): 12.6%
viability, T/C [22]: 6.47%
viability, T/C (second compound 1 µM, first compound 0.1 µM): 3.38%
viability, T/C [24]: 4.34%
viability, T/C (second compound 1 µM, first compound 1 µM): 6.41%
viability, T/C (second compound 1 µM, first compound 3.16 µM): 9.91%
viability, T/C (second compound 1 µM, first compound 10 µM): 12%
viability, T/C [28]: 5.06%
viability, T/C (second compound 3.16 µM, first compound 0.1 µM): 3.06%
viability, T/C [30]: 4.72%
viability, T/C (second compound 3.16 µM, first compound 1 µM): 6.71%
viability, T/C (second compound 3.16 µM, first compound 3.16 µM): 7.72%
viability, T/C (second compound 3.16 µM, first compound 10 µM): 11.3%
viability, T/C [34]: 3.86%
viability, T/C (second compound 10 µM, first compound 0.1 µM): 2.35%
viability, T/C [36]: 3.67%
viability, T/C (second compound 10 µM, first compound 1 µM): 4.43%
viability, T/C (second compound 10 µM, first compound 3.16 µM): 6.04%
viability, T/C (second compound 10 µM, first compound 10 µM): 6.46%

Cc1[nH]c2ccccc2c1CCNCc1ccc(/C=C/C(=O)NO)cc1 + CN(C)c1ccc(Nc2c3ccc(NC(=O)CCN4CCCC4)cc3nc3cc(NC(=O)CCN4CCCC4)ccc23)cc1
IC50 (second compound 0.0316 µM): 0.078 µM
IC50 (second compound 0.1 µM): 0.0684 µM
IC50 (second compound 0.316 µM): 0.075 µM
IC50 (second compound 1 µM): 0.0675 µM
IC50 (second compound 3.16 µM): 0.0543 µM
IC50 (second compound 10 µM): 0.0469 µM
viability, T/C [1]: 106%
viability, T/C [2]: 95.3%
viability, T/C [3]: 109%
viability, T/C [4]: 85.8%
viability, T/C [5]: 40.2%
viability, T/C [6]: 5.05%
viability, T/C [7]: 106%
viability, T/C [8]: 102%
viability, T/C [9]: 109%
viability, T/C [10]: 87.8%
viability, T/C [11]: 31.4%
viability, T/C [12]: 4.54%
viability, T/C [13]: 94.7%
viability, T/C [14]: 97.8%
viability, T/C [15]: 109%
viability, T/C [16]: 101%
viability, T/C [17]: 33.1%
viability, T/C [18]: 3.99%
viability, T/C [19]: 98.9%
viability, T/C [20]: 100%
viability, T/C [21]: 108%
viability, T/C [22]: 98.2%
viability, T/C [23]: 25%
viability, T/C [24]: 3.89%
viability, T/C [25]: 98.3%
viability, T/C [26]: 104%
viability, T/C [27]: 104%
viability, T/C [28]: 81%
viability, T/C [29]: 14.8%
viability, T/C [30]: 1.84%
viability, T/C [31]: 100%
viability, T/C [32]: 104%
viability, T/C [33]: 108%
viability, T/C [34]: 74.8%
viability, T/C [35]: 2.99%
viability, T/C [36]: 0.49%
